Data reported in patent US9724416B2, “Composition for improving or promoting hair growth containing, as active ingredients, photosensitizer irradiated with light and peptide, and method using same” (GWANGJU INSTITUTE OF SCIENCE AND TECHNOLOGY, priority 2012, dated 2017).
Entries after “also recorded” stand apart in the source; their conditions may differ.

Experiments:
C57BL/6N mouse [1] = assay: Hair growth promoting effects using a mouse (second test); format: in vivo
Method: A 10-fold volume of primary distilled water was put into 100 g of Cimicifuga heracleifolia, Baikl skullcap, and Lance Asiabell dry matters, which were hot water extracted for 6 hours at 100° C. and were then filtered. The filtered extracts were pulverized through freeze-dried and then stored at 4° C. until used. The pulverized natural extracts were used in a mouse experiment at a concentration of 1 mg/ml.
(§1) ALA and ALA-peptide which were major test materials of the present invention were dissolved in pure water to a concentration of […] (100 ppm) to be used.
A 7-week-old C57BL/6N mouse was used for this study, and hair of the mouse's back was completely removed using a wax at the age of 49 days to 51 days at which the C57BL/6N mouse enters […] for the second time. In order to verify hair growth promoting effects of the test materials, it was treated once a day for 24 days. More particularly, the ALA and ALA-peptide were sprayed 3 times before LED radiation, and the LED treated groups were verified after treated for 5 minutes.

C57BL/6N mouse [2] = assay: Hair growth promoting effects using a mouse (first test); format: in vivo; details: for hair growth amounts compared to the control group: FIGS. 7 and 8 (day 10, day 12); for hair growth promoting effects with the naked eye compared to the untreated group: day 5 after sample treatment; for hair growth promoting effects compared to the untreated group: day 8 after sample treatment (FIG. 6B); for hair growth levels: until day 3, compared across groups incl. untreated
Method: as §1
A 7-week-old C57BL/6N mouse (Jungang Lab. Animal Inc., KOR) was used for this study, and hair of the mouse's back was completely removed using a wax at the age of 49 days to 51 days at which the C57BL/6N mouse enters […] for the second time. In order to verify hair growth promoting effects of the test materials, it was treated once a day for 24 days. More particularly, ALA and the ALA-peptide were sprayed 3 times before LED radiation, and the LED treated groups were verified after being treated for 5 minutes.

| Molecule | hair growth promoting effects compared to the untreated group (in words) (C57BL/6N mouse [1]; LED-Red radiation, day 9 after sample treatment) | hair growth amounts compared to the untreated group (C57BL/6N mouse [1]; LED-Red radiation, extracts 1 mg/ml) | hair growth levels compared to untreated group (C57BL/6N mouse [1]; without LED radiation, FIGS. 16 to 19 (day 0 to day 7)) | hair growth amounts compared to the control group (C57BL/6N mouse [2]; LED-Blue radiation) | hair growth promoting effects with the naked eye compared to the untreated group (C57BL/6N mouse [2]; LED-Blue radiation) | hair growth promoting effects compared to the untreated group (C57BL/6N mouse [2]; LED-Blue radiation) | hair growth promoting effects through continuous treatments (C57BL/6N mouse [2]; LED-Red radiation compared to LED-Blue radiation, FIGS. 9 to 14 (day 14 to day 24)) | hair growth amounts compared to the control group (C57BL/6N mouse [2]; LED-Red radiation) | hair growth promoting effects with the naked eye compared to the untreated group (C57BL/6N mouse [2]; LED-Red radiation) | hair growth promoting effects compared to the untreated group (C57BL/6N mouse [2]; LED-Red radiation) | hair loss phenomenon compared to other treated groups (C57BL/6N mouse [2]; LED-Blue radiation, day 30 of observation (FIG. 15)) | hair growth levels (C57BL/6N mouse [2]; LED-Blue radiation) | hair growth levels (C57BL/6N mouse [2]; LED-Red radiation) |
| --- | --- | --- | --- | --- | --- | --- | --- | --- | --- | --- | --- | --- | --- |
| 5-Aminolevulinic Acid (ALA)-Peptide (GHK) [ALA-peptide] | significant hair growth promoting effects | increasing effects in the significant hair growth amounts | little differences in hair growth levels | significant hair growth promoting effects | distinct differences | about 7 fold | more superior hair growth promoting effects than the LED-Blue+ALA-peptide treated group | significant hair growth promoting effects; also recorded: most superior hair growth promoting effect | distinct differences | about 10 fold | – | – | – |
| Cl.NCC(=O)CCC(=O)O [ALA, 5-aminolevulinic acid, reference compound] | – | – | – | – | – | – | – | – | – | – | considerable hair loss phenomenon | no differences in hair growth levels | no differences in hair growth levels |
